Measurements published in the NIST ThermoML archive (doi:10.1021/je901020a).

Assays:
[1] = xn = mol fraction of the nth substance listed; settings: 101 kPa, Liquid; for speed of sound: Pulse-echo method
[2] = refractive index (Na D-line) (dimensionless); xn = mol fraction of the nth substance listed; settings: 101 kPa, Liquid, Standard Abbe refractometry

Cc1ccccc1C [1,2-dimethylbenzene] + C1CCCC1
x2 = 0
Settings	mass density, [1] [kg/m3]	refractive index, [2]	speed of sound, [1] [m/s]
298.15 K	875.4	1.50262	1350
313.15 K	862.9	1.49466	1290

Cc1ccccc1C [1,2-dimethylbenzene] + C1CCCCC1
Settings	mass density, [1] [kg/m3]	refractive index, [2]	speed of sound, [1] [m/s]
298.15 K, x2 = 0	875.4	1.50262	1350
298.15 K, x2 = 0.0471	870.8	1.49895	1343
298.15 K, x2 = 0.0981	865.5	1.49488	1336
298.15 K, x2 = 0.1961	855.2	1.48705	1323
298.15 K, x2 = 0.2986	844.5	1.47886	1310
298.15 K, x2 = 0.3979	834	1.47092	1298
298.15 K, x2 = 0.4964	823.8	1.46293	1288
298.15 K, x2 = 0.5975	813.5	1.45493	1278
298.15 K, x2 = 0.6978	803.2	1.44691	1269
298.15 K, x2 = 0.796	793.4	1.43924	1263
298.15 K, x2 = 0.8995	783.4	1.43126	1257
298.15 K, x2 = 0.9512	778.6	1.42739	1255
313.15 K, x2 = 0	862.9	1.49466	1289
313.15 K, x2 = 0.0528	857.4	1.49053	1282
313.15 K, x2 = 0.0977	852.7	1.48716	1275
313.15 K, x2 = 0.1958	842.3	1.47934	1261
313.15 K, x2 = 0.2169	840	1.47754	1258
313.15 K, x2 = 0.4011	820.4	1.46285	1234
313.15 K, x2 = 0.4999	809.9	1.45473	1222
313.15 K, x2 = 0.5976	799.6	1.44694	1211
313.15 K, x2 = 0.6971	789.4	1.43921	1201
313.15 K, x2 = 0.7994	779	1.43094	1193
313.15 K, x2 = 0.8995	769.1	1.42311	1186
313.15 K, x2 = 0.9484	764.5	1.41926	1183

Cc1ccccc1C [1,2-dimethylbenzene] + C1CCCCCCC1
x2 = 0
Settings	mass density, [1] [kg/m3]	refractive index, [2]	speed of sound, [1] [m/s]
298.15 K	875.4	1.50262	1350
313.15 K	862.9	1.49466	1289

Cc1ccccc1C [1,2-dimethylbenzene] + CC1CCCCC1
x2 = 0
Settings	mass density, [1] [kg/m3]	refractive index, [2]	speed of sound, [1] [m/s]
298.15 K	875.4	1.50262	1350
313.15 K	862.9	1.49466	1289

Cc1cc(C)cc(C)c1 [1,3,5-trimethylbenzene] + C1CCCC1
x2 = 0
Settings	mass density, [1] [kg/m3]	refractive index, [2]	speed of sound, [1] [m/s]
298.15 K	861.1	1.49693	1336
313.15 K	848.8	1.48923	1277

Cc1cc(C)cc(C)c1 [1,3,5-trimethylbenzene] + C1CCCCC1
Settings	mass density, [1] [kg/m3]	refractive index, [2]	speed of sound, [1] [m/s]
298.15 K, x2 = 0	861.1	1.49693	1336
298.15 K, x2 = 0.0459	857.3	1.4939	1331
298.15 K, x2 = 0.0956	853.1	1.49061	1326
298.15 K, x2 = 0.193	844.8	1.48396	1315
298.15 K, x2 = 0.2937	835.9	1.47698	1304
298.15 K, x2 = 0.3878	827.5	1.46995	1294
298.15 K, x2 = 0.4953	817.9	1.46201	1283
298.15 K, x2 = 0.598	808.6	1.45441	1274
298.15 K, x2 = 0.6944	799.7	1.44675	1265
298.15 K, x2 = 0.796	790.3	1.43896	1258
298.15 K, x2 = 0.8942	781.5	1.43119	1252
298.15 K, x2 = 0.9515	776.9	1.42697	1250
313.15 K, x2 = 0	848.8	1.48923	1277
313.15 K, x2 = 0.0488	844.8	1.48628	1271
313.15 K, x2 = 0.102	840.2	1.48264	1265
313.15 K, x2 = 0.2008	831.7	1.47604	1253
313.15 K, x2 = 0.3053	822.6	1.4688	1241
313.15 K, x2 = 0.416	812.4	1.46071	1229
313.15 K, x2 = 0.5105	803.5	1.4534	1219
313.15 K, x2 = 0.6084	794.3	1.44576	1209
313.15 K, x2 = 0.7068	785.2	1.43825	1200
313.15 K, x2 = 0.8092	775.9	1.43012	1191
313.15 K, x2 = 0.911	766.9	1.4222	1185
313.15 K, x2 = 0.9612	762.7	1.41833	1183

Cc1cc(C)cc(C)c1 [1,3,5-trimethylbenzene] + C1CCCCCCC1
x2 = 0
Settings	mass density, [1] [kg/m3]	refractive index, [2]	speed of sound, [1] [m/s]
298.15 K	861.1	1.49693	1336
313.15 K	848.8	1.48923	1277

Cc1cc(C)cc(C)c1 [1,3,5-trimethylbenzene] + CC1CCCCC1
Settings	mass density, [1] [kg/m3]	refractive index, [2]	speed of sound, [1] [m/s]
298.15 K, x2 = 0	861.1	1.49693	1336
298.15 K, x2 = 0.0463	856.7	1.49346	1330
298.15 K, x2 = 0.0962	851.9	1.48973	1323
298.15 K, x2 = 0.197	842.2	1.48211	1310
298.15 K, x2 = 0.2868	833.5	1.47524	1298
298.15 K, x2 = 0.3963	822.8	1.46685	1283
298.15 K, x2 = 0.4972	813	1.45909	1271
298.15 K, x2 = 0.5956	803.4	1.45153	1259
298.15 K, x2 = 0.6974	793.6	1.44373	1247
298.15 K, x2 = 0.7932	784.3	1.43635	1236
298.15 K, x2 = 0.8942	774.8	1.42859	1226
298.15 K, x2 = 0.9497	769.6	1.42444	1220
313.15 K, x2 = 0	848.8	1.48923	1277
313.15 K, x2 = 0.0524	843.8	1.48547	1269
313.15 K, x2 = 0.1075	838.5	1.48144	1262
313.15 K, x2 = 0.2051	829.1	1.47418	1248
313.15 K, x2 = 0.314	818.5	1.466	1233
313.15 K, x2 = 0.4067	809.5	1.45892	1221
313.15 K, x2 = 0.5093	799.5	1.45103	1207
313.15 K, x2 = 0.6083	789.8	1.44335	1195
313.15 K, x2 = 0.7071	780.1	1.43558	1183
313.15 K, x2 = 0.8106	770.1	1.42752	1171
313.15 K, x2 = 0.9093	760.4	1.41983	1159
313.15 K, x2 = 0.9596	755.7	1.41588	1154

Cc1cccc(C)c1 [1,3-dimethylbenzene] + C1CCCC1
x2 = 0
Settings	mass density, [1] [kg/m3]	refractive index, [2]	speed of sound, [1] [m/s]
298.15 K	859.8	1.49466	1321
313.15 K	846.9	1.48653	1259

Cc1cccc(C)c1 [1,3-dimethylbenzene] + C1CCCCC1
Settings	mass density, [1] [kg/m3]	refractive index, [2]	speed of sound, [1] [m/s]
298.15 K, x2 = 0	859.8	1.49466	1321
298.15 K, x2 = 0.0346	856.9	1.49219	1317
298.15 K, x2 = 0.096	851.4	1.48781	1310
298.15 K, x2 = 0.1974	842.2	1.48052	1300
298.15 K, x2 = 0.2879	834.1	1.47391	1291
298.15 K, x2 = 0.3982	824.1	1.46589	1281
298.15 K, x2 = 0.5005	815	1.45851	1273
298.15 K, x2 = 0.6019	806.2	1.45128	1267
298.15 K, x2 = 0.6976	797.9	1.44447	1261
298.15 K, x2 = 0.7985	789.4	1.43723	1257
298.15 K, x2 = 0.9021	781.1	1.42992	1254
298.15 K, x2 = 0.9509	777.4	1.42673	1254
313.15 K, x2 = 0	846.9	1.48653	1259
313.15 K, x2 = 0.0355	843.7	1.48408	1255
313.15 K, x2 = 0.095	838.3	1.47988	1248
313.15 K, x2 = 0.1903	829.6	1.47305	1238
313.15 K, x2 = 0.2937	820.2	1.46566	1227
313.15 K, x2 = 0.3969	810.8	1.45826	1217
313.15 K, x2 = 0.4919	802.3	1.45153	1209
313.15 K, x2 = 0.5952	793.1	1.44402	1200
313.15 K, x2 = 0.6963	784.3	1.43677	1193
313.15 K, x2 = 0.7968	775.5	1.42954	1187
313.15 K, x2 = 0.8984	767.3	1.42246	1183
313.15 K, x2 = 0.9496	763.45	1.41885	1182

Cc1cccc(C)c1 [1,3-dimethylbenzene] + C1CCCCCCC1
x2 = 0
Settings	mass density, [1] [kg/m3]	refractive index, [2]	speed of sound, [1] [m/s]
298.15 K	859.8	1.49466	1321
313.15 K	846.9	1.48653	1259

Cc1cccc(C)c1 [1,3-dimethylbenzene] + CC1CCCCC1
Settings	mass density, [1] [kg/m3]	refractive index, [2]	speed of sound, [1] [m/s]
298.15 K, x2 = 0	859.8	1.49466	1321
298.15 K, x2 = 0.0514	854.4	1.49046	1313
298.15 K, x2 = 0.0975	849.6	1.4867	1307
298.15 K, x2 = 0.159	843.2	1.48174	1298
298.15 K, x2 = 0.2977	829.1	1.47072	1281
298.15 K, x2 = 0.399	819.1	1.46292	1269
298.15 K, x2 = 0.4954	809.7	1.45565	1258
298.15 K, x2 = 0.5965	800.2	1.44827	1248
298.15 K, x2 = 0.6974	791	1.44107	1238
298.15 K, x2 = 0.7948	782.3	1.4343	1230
298.15 K, x2 = 0.8933	773.8	1.42759	1222
298.15 K, x2 = 0.9495	769.1	1.42388	1218
313.15 K, x2 = 0	846.9	1.48653	1259
313.15 K, x2 = 0.0457	842.1	1.4829	1252
313.15 K, x2 = 0.0933	837.1	1.47908	1246
313.15 K, x2 = 0.1938	826.7	1.47103	1232
313.15 K, x2 = 0.2886	817	1.46361	1219
313.15 K, x2 = 0.3966	806.3	1.45534	1206
313.15 K, x2 = 0.5077	795.5	1.44702	1194
313.15 K, x2 = 0.595	787.3	1.44063	1184
313.15 K, x2 = 0.6933	778.3	1.43362	1175
313.15 K, x2 = 0.7987	768.8	1.42615	1165
313.15 K, x2 = 0.8973	760.3	1.41945	1157
313.15 K, x2 = 0.9504	756.1	1.41609	1153

Cc1ccc(C)cc1 [1,4-dimethylbenzene] + C1CCCC1
x2 = 0
Settings	mass density, [1] [kg/m3]	refractive index, [2]	speed of sound, [1] [m/s]
298.15 K	856.6	1.49312	1310
313.15 K	843.5	1.48444	1248
